# Columns and labels:
# Experiment in all cases: Equilibrium binding assay, primary cerebellar neuron cultures
# Format in all cases: cell-based, rat
# IGF-II receptor = system: IGF-II receptor
# Experimental: (§1) Fresh frozen tissue (˜100 mg) was homogenized in 5 volumes of NP-40 lysis buffer (50 mM Tris-HCl, pH 7.5, 1% NP-40, 150 mM NaCl, 1 mM EDTA, 2 mM EGTA) containing protease inhibitors (1 mM PMSF, 0.1 mM TPCK, 1 μg/ml aprotinin, 1 μg/ml pepstatin A, 0.5 μg/ml leupeptin, 1 mM NaF, 1 mM Na4P2O7). Protein concentrations were determined using the bicinchoninic acid (BCA) assay (Pierce, Rockford, Ill.). Exploratory studies determined the amounts of protein and concentrations of radiolabeled ligand required to achieve 20% specific binding. Insulin receptor binding assays were performed using 100 μg protein. IGF-I binding assays required 25 μg protein per sample, and IGF-II receptor binding assays were optimized using 10 μg protein. Competitive equilibrium binding assays were used to assess growth factor binding in relation to ethanol exposure. For total binding, duplicate individual protein samples were incubated in 100 μl reactions containing binding buffer (100 mM HEPES, pH 8.0, 118 mM NaCl, 1.2 mM MgSO4, 8.8 mM dextrose, 5 mM KCl, 1% bovine serum albumin) and 100 nCi/ml of [^125I] (2000 Ci/mmol; […]) insulin, IGF-I, or IGF-II. To measure non-specific binding, replicate samples were identically prepared but with the addition of 0.1 μM unlabeled (cold) ligand.
# (§2) All reactions were performed in 1.5 ml Eppendorff tubes, and the incubations were performed at 4° C. for 16 hours with gentle platform agitation. Bound radiolabeled tracer was then precipitated by adding 500 μl of 0.15% bovine gamma globulin (prepared in 100 mM Tris-HCl, pH 8.0) followed by 400 μl 37.5% polyethylene glycol 8000 (PEG-8000; prepared in 100 mM Tris-HCl, pH 8.0) to each tube. The samples were thoroughly mixed by vortexing, and then incubated on ice for at least 2 hours. The precipitates were collected by centrifuging the samples at 15,000×g for 5 minutes at room temperature. The supernatant fraction, which contained unbound (free) ligand, was transferred in its entirety to a Gamma counting tube (Sarstedt, Newton, N.C.). The Eppendorff tube tip containing the pellet was cut and released directly into a separate Gamma counting tube. The samples were counted for 1 minute in an LKB CompuGamma CS Gamma counter. Specific binding was calculated by subtracting fmol of non-specific binding, i.e., amount bound in the presence of cold ligand, from the total fmol bound (absence of unlabeled competitive ligand). The results were analyzed and plotted using the GraphPad Prism 4 software (GraphPad Software, Inc., San Diego, Calif.).
# (§3) In vitro experiments were used to examine the effects of ethanol on receptor binding and choline acetyltransferase (ChAT) and acetylcholinesterase (AChE) expression in cerebellar neurons. Primary neuronal cultures were generated with postnatal day 8 rat pup cerebellar tissue (Nikolic et al. Genes Dev. 10:816 (1996)). The cultures were maintained with Dulbecco's modified Eagle's medium (DMEM) supplemented with 5% fetal calf serum, 4 mM glutamine, 100 μM non-essential amino acid mixture (Gibco-BRL, Grand Island, N.Y.), 25 mM KCl, and 9 g/L glucose. […] Alcohol Clin. Exp. Res. 24:716 (2000); Banerjee et al. Alcohol Clin. Exp. Res. 22:2093 (1998)). Control cultures were identically treated but with water added to the reservoir tray. The chambers were flushed with gas containing 75% nitrogen, 20% oxygen, and 5% carbon dioxide. […] Alternatively, the cells were serum-starved for 12 hours and then stimulated with 10 nM insulin, […], 25 nM IGF-II, or vehicle for 16 hours, and RNA was harvested to measure ChAT and AChE expression.
# insulin receptor = system: insulin receptor
# Experimental: as §1, §2, §3
# IGF-I receptor = system: IGF-I receptor
# Experimental: as §1
# All reactions were performed in 1.5 ml Eppendorff tubes, and the incubations were performed at 4° C. for 16 hours with gentle platform agitation. Bound radiolabeled tracer was then precipitated by adding 500 μl of 0.15% bovine gamma globulin (prepared in 100 mM Tris-HCl, pH 8.0) followed by 400 μl 37.5% polyethylene glycol 8000 (PEG-8000; prepared in 100 mM Tris-HCl, pH 8.0) to each tube. […] The samples were counted for 1 minute in an LKB CompuGamma CS Gamma counter. Specific binding was calculated by subtracting fmol of non-specific binding, i.e., amount bound in the presence of cold ligand, from the total fmol bound (absence of unlabeled competitive ligand). The results were analyzed and plotted using the GraphPad Prism 4 software (GraphPad Software, Inc., San Diego, Calif.). […]
# [1] = 50 mM ethanol for 96 hours vs control cultures
# [2] = 10 mM for 3 hours, control cerebellar neurons
# [3] = 10 mM for 3 hours, control and ethanol-exposed cultures, relative to vehicle-treated cells
compound,measurement,setting,value
CCO [ethanol],IGF-II receptor binding,IGF-II receptor; [1],significantly reduced
same,insulin receptor binding,insulin receptor; [1],significantly reduced
same,IGF-I receptor binding,IGF-I receptor; [1],significantly reduced
CC(C)CCC[C@@H](C)[C@H]1CC[C@H]2[C@@H]3CC=C4C[C@@H](O)CC[C@]4(C)[C@H]3CC[C@]12C [cholesterol],IGF-II receptor binding,IGF-II receptor; [2],significantly impaired
same,insulin receptor binding,"insulin receptor; 10 mM for 3 hours, control cells",no significant effect
same,insulin-receptor binding,"insulin receptor; 10 mM for 3 hours, ethanol-treated cells",enhanced
same,IGF-I receptor binding,IGF-I receptor; [2],significantly impaired
Methyl-β-cyclodextrin [MβCD],IGF-II receptor binding,IGF-II receptor; [3],significantly inhibited
same,insulin receptor binding,insulin receptor; [3],significantly inhibited
same,IGF-I receptor binding,IGF-I receptor; [3],significantly inhibited

# From patent US9308198B2, “Treatment, prevention, and reversal of alcohol-induced brain disease” (priority 2006, dated 2016)
